Laboratory results: patent US20130338106A1, “COMPOUNDS INHIBITING LEUCINE-RICH REPEAT KINASE ENZYME ACTIVITY” (priority 2011, published 2013)

How the values were obtained:
Format in all cases: biochemical
Details in all cases: tested at 10 uM, read-out: percent inhibition of the kinase activity
ABL H396P = target: T1, ABL H396P (Homo sapiens, UniProt P00519, H396P); assay: ProfilerPro Kinase Selectivity, ABL H396P
T1 construct: purchased Caliper LifeSciences
Protocol: (§1) Kinome selectivity profiling was performed using two example compounds according to the manufacturer's instructions using Caliper LifeSciences' ProfilerPro Kinase Selectivity Assay Kits. Compounds prepared in Examples 1 and 7 were tested at 10 uM and data were recorded using the Caliper LabChip® EZ Reader™. Each compounds' percent inhibition of the kinase activity measured in this manner is reported in the following lists.

ABL T315I = target: T2, ABL T315I (Homo sapiens, UniProt P00519, T315I); assay: ProfilerPro Kinase Selectivity, ABL T315I
T2 construct: purchased Caliper LifeSciences
Protocol: as §1

ABL1 E255K = target: T3, ABL1 E255K (Homo sapiens, UniProt P00519, E255K); assay: ProfilerPro Kinase Selectivity, ABL1 E255K
T3 construct: purchased Caliper LifeSciences
Protocol: as §1

ABL1 Y253F = target: T4, ABL1 Y253F (Homo sapiens, UniProt P00519, Y253F); assay: ProfilerPro Kinase Selectivity, ABL1 Y253F
T4 construct: purchased Caliper LifeSciences
Protocol: as §1

AKT1 = target: T5, AKT1 (Homo sapiens, UniProt P31749); assay: ProfilerPro Kinase Selectivity, AKT1
T5 construct: purchased Caliper LifeSciences
Protocol: as §1

AXL = target: T6, AXL (Homo sapiens, UniProt P30530); assay: ProfilerPro Kinase Selectivity, AXL
T6 construct: purchased Caliper LifeSciences
Protocol: as §1

BMX = target: T7, BMX (Homo sapiens, UniProt P51813); assay: ProfilerPro Kinase Selectivity, BMX
T7 construct: purchased Caliper LifeSciences
Protocol: as §1

CHK1 = target: T8, CHK1 (Homo sapiens, UniProt O14757); assay: ProfilerPro Kinase Selectivity, CHK1
T8 construct: purchased Caliper LifeSciences
Protocol: as §1

CHK2 = target: T9, CHK2 (Homo sapiens, UniProt O96017); assay: ProfilerPro Kinase Selectivity, CHK2
T9 construct: purchased Caliper LifeSciences
Protocol: as §1

DYRK4 = target: T10, DYRK4 (Homo sapiens, UniProt Q9NR20); assay: ProfilerPro Kinase Selectivity, DYRK4
T10 construct: purchased Caliper LifeSciences
Protocol: as §1

EPHA1 = target: T11, EPHA1 (Homo sapiens, UniProt P21709); assay: ProfilerPro Kinase Selectivity, EPHA1
T11 construct: purchased Caliper LifeSciences
Protocol: as §1

EPHB4 = target: T12, EPHB4 (Homo sapiens, UniProt P54760); assay: ProfilerPro Kinase Selectivity, EPHB4
T12 construct: purchased Caliper LifeSciences
Protocol: as §1

FMS = target: T13, FMS (Homo sapiens, UniProt P07333); assay: ProfilerPro Kinase Selectivity, FMS
T13 construct: purchased Caliper LifeSciences
Protocol: as §1

GSK3B = target: T14, GSK3B (Homo sapiens, UniProt P49841); assay: ProfilerPro Kinase Selectivity, GSK3B
T14 construct: purchased Caliper LifeSciences
Protocol: as §1

HIPK1 = target: T15, HIPK1 (Homo sapiens, UniProt Q86Z02); assay: ProfilerPro Kinase Selectivity, HIPK1
T15 construct: purchased Caliper LifeSciences
Protocol: as §1

HIPK2 = target: T16, HIPK2 (Homo sapiens, UniProt Q9H2X6); assay: ProfilerPro Kinase Selectivity, HIPK2
T16 construct: purchased Caliper LifeSciences
Protocol: as §1

IKKE = target: T17, IKKE (Homo sapiens, UniProt Q14164); assay: ProfilerPro Kinase Selectivity, IKKE
T17 construct: purchased Caliper LifeSciences
Protocol: as §1

ITK = target: T18, ITK (Homo sapiens, UniProt Q08881); assay: ProfilerPro Kinase Selectivity, ITK
T18 construct: purchased Caliper LifeSciences
Protocol: as §1

LYN = target: T19, LYN (Homo sapiens, UniProt P07948); assay: ProfilerPro Kinase Selectivity, LYN
T19 construct: purchased Caliper LifeSciences
Protocol: as §1

MAPKAPK2 = target: T20, MAPKAPK2 (Homo sapiens, UniProt P49137); assay: ProfilerPro Kinase Selectivity, MAPKAPK2
T20 construct: purchased Caliper LifeSciences
Protocol: as §1

MARK2 = target: T21, MARK2 (Homo sapiens, UniProt Q7KZI7); assay: ProfilerPro Kinase Selectivity, MARK2
T21 construct: purchased Caliper LifeSciences
Protocol: as §1

MELK = target: T22, MELK (Homo sapiens, UniProt Q14680); assay: ProfilerPro Kinase Selectivity, MELK
T22 construct: purchased Caliper LifeSciences
Protocol: as §1

MET M1250T = target: T23, MET M1250T (Homo sapiens, UniProt P08581, M1250T); assay: ProfilerPro Kinase Selectivity, MET M1250T
T23 construct: purchased Caliper LifeSciences
Protocol: as §1

MNK1 = target: T24, MNK1 (Homo sapiens, UniProt Q9BUB5); assay: ProfilerPro Kinase Selectivity, MNK1
T24 construct: purchased Caliper LifeSciences
Protocol: as §1

P38D = target: T25, P38D (Homo sapiens, UniProt O15264); assay: ProfilerPro Kinase Selectivity, P38D
T25 construct: purchased Caliper LifeSciences
Protocol: as §1

PAK4 = target: T26, PAK4 (Homo sapiens, UniProt O96013); assay: ProfilerPro Kinase Selectivity, PAK4
T26 construct: purchased Caliper LifeSciences
Protocol: as §1

PHKG1 = target: T27, PHKG1 (Homo sapiens, UniProt Q16816); assay: ProfilerPro Kinase Selectivity, PHKG1
T27 construct: purchased Caliper LifeSciences
Protocol: as §1

PHKG2 = target: T28, PHKG2 (Homo sapiens, UniProt P15735); assay: ProfilerPro Kinase Selectivity, PHKG2
T28 construct: purchased Caliper LifeSciences
Protocol: as §1

PKACA = target: T29, PKACA (Homo sapiens, UniProt P17612); assay: ProfilerPro Kinase Selectivity, PKACA
T29 construct: purchased Caliper LifeSciences
Protocol: as §1

PRKCB1 = target: T30, PRKCB1 (Homo sapiens, UniProt P05771); assay: ProfilerPro Kinase Selectivity, PRKCB1
T30 construct: purchased Caliper LifeSciences
Protocol: as §1

PRKX = target: T31, PRKX (Homo sapiens, UniProt P51817); assay: ProfilerPro Kinase Selectivity, PRKX
T31 construct: purchased Caliper LifeSciences
Protocol: as §1

PYK2 = target: T32, PYK2 (Homo sapiens, UniProt Q14289); assay: ProfilerPro Kinase Selectivity, PYK2
T32 construct: purchased Caliper LifeSciences
Protocol: as §1

RAF-1 = target: T33, RAF-1 (Homo sapiens, UniProt P04049); assay: ProfilerPro Kinase Selectivity, RAF-1
T33 construct: purchased Caliper LifeSciences
Protocol: as §1

SRM = target: T34, SRM (Homo sapiens, UniProt Q9H3Y6); assay: ProfilerPro Kinase Selectivity, SRM
T34 construct: purchased Caliper LifeSciences
Protocol: as §1

TEC = target: T35, TEC (Homo sapiens, UniProt P42680); assay: ProfilerPro Kinase Selectivity, TEC
T35 construct: purchased Caliper LifeSciences
Protocol: as §1

TSSK2 = target: T36, TSSK2 (Homo sapiens, UniProt Q96PF2); assay: ProfilerPro Kinase Selectivity, TSSK2
T36 construct: purchased Caliper LifeSciences
Protocol: as §1

TXK = target: T37, TXK (Homo sapiens, UniProt P42681); assay: ProfilerPro Kinase Selectivity, TXK
T37 construct: purchased Caliper LifeSciences
Protocol: as §1

ZIPK = target: T38, ZIPK (Homo sapiens, UniProt O43293); assay: ProfilerPro Kinase Selectivity, ZIPK
T38 construct: purchased Caliper LifeSciences
Protocol: as §1

T6 sequence (P30530 26-894, species assumed): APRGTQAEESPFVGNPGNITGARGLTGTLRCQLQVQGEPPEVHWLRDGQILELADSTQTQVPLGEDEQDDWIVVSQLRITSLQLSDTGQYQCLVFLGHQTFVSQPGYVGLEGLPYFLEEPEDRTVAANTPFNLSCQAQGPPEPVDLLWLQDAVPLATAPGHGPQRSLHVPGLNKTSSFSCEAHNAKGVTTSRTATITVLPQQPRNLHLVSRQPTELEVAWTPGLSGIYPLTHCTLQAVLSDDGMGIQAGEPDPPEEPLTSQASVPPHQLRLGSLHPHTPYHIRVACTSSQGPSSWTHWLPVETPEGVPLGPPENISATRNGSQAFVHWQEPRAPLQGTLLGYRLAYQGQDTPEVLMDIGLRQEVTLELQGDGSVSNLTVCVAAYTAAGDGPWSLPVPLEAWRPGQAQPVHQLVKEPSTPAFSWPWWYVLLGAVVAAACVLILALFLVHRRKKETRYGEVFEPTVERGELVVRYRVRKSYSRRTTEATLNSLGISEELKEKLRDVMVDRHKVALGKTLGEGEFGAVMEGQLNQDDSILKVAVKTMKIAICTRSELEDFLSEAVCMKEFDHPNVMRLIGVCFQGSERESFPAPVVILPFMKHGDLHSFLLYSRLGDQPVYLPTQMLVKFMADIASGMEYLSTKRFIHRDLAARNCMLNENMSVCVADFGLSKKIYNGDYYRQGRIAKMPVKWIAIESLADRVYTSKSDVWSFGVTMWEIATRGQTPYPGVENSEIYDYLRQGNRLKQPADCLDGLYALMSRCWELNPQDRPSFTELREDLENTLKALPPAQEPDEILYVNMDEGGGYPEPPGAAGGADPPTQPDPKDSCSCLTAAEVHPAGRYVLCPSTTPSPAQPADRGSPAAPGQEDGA
T9 sequence (O96017 whole entry, species assumed): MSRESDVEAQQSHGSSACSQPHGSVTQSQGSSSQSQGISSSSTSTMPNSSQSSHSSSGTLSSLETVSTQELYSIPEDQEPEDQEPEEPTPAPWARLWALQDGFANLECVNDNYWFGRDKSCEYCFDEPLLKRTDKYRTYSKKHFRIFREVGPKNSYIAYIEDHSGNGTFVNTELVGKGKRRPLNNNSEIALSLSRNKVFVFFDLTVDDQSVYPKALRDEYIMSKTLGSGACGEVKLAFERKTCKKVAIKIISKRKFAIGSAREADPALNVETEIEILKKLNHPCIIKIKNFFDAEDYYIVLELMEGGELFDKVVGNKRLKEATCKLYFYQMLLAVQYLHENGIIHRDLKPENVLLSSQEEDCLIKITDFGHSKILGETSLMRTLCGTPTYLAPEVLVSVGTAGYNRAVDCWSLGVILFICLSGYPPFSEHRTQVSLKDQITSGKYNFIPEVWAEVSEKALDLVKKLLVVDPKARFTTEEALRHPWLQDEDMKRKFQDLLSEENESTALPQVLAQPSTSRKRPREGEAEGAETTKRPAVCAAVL
T21 sequence (Q7KZI7 whole entry, species assumed): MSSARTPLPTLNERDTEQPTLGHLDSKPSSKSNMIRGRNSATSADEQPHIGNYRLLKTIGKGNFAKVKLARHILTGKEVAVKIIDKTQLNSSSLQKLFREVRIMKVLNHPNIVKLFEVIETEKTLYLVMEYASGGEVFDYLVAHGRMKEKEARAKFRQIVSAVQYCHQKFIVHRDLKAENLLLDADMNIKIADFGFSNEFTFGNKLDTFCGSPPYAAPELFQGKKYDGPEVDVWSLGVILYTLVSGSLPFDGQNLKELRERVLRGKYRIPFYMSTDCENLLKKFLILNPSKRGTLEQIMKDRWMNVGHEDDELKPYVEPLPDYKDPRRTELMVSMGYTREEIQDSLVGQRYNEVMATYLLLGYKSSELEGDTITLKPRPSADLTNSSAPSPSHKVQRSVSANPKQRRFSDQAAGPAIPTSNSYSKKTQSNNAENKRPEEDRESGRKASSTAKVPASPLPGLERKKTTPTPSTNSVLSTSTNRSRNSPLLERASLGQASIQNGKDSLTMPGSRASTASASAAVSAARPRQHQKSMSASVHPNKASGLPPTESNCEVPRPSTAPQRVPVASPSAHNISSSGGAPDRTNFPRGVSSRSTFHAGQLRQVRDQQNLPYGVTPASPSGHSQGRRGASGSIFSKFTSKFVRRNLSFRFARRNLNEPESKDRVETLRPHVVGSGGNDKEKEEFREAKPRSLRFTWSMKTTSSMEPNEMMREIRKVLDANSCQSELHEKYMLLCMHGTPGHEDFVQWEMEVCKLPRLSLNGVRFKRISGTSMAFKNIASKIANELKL
T5 sequence (P31749 whole entry, species assumed): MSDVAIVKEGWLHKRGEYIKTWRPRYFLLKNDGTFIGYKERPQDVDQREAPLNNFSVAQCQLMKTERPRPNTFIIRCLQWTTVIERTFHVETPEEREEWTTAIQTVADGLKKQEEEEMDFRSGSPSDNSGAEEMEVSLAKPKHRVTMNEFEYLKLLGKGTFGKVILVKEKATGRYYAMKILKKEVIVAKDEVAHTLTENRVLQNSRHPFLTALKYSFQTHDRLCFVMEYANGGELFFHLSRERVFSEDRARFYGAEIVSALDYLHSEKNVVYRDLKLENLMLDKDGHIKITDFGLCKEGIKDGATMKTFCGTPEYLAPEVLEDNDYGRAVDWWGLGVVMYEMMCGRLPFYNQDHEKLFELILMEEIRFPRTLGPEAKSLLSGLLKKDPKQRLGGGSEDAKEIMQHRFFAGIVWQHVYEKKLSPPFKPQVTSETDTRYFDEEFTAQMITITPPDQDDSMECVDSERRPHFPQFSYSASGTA
T20 sequence (P49137 whole entry, species assumed): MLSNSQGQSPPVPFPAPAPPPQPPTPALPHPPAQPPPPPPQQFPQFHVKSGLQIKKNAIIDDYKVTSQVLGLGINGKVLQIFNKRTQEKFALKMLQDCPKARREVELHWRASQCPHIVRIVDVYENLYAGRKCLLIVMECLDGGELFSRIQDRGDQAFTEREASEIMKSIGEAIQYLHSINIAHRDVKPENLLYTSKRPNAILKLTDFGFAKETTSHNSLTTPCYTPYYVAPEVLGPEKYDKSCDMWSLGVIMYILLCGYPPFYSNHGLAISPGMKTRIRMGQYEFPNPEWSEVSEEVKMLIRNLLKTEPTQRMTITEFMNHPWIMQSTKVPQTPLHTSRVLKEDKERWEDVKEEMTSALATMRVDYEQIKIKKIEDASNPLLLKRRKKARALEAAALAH
T27 sequence (Q16816 whole entry, species assumed): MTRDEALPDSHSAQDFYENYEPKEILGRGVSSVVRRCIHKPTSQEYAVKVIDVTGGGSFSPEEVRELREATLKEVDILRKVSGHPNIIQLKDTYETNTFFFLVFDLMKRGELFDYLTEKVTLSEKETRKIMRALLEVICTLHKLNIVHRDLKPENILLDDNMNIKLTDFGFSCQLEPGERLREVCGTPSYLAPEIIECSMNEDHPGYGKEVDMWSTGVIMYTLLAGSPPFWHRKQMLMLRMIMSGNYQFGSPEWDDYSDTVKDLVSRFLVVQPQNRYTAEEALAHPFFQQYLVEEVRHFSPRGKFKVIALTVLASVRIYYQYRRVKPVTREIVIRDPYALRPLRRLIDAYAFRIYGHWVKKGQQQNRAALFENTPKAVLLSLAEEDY
T10 sequence (Q9NR20 whole entry, species assumed): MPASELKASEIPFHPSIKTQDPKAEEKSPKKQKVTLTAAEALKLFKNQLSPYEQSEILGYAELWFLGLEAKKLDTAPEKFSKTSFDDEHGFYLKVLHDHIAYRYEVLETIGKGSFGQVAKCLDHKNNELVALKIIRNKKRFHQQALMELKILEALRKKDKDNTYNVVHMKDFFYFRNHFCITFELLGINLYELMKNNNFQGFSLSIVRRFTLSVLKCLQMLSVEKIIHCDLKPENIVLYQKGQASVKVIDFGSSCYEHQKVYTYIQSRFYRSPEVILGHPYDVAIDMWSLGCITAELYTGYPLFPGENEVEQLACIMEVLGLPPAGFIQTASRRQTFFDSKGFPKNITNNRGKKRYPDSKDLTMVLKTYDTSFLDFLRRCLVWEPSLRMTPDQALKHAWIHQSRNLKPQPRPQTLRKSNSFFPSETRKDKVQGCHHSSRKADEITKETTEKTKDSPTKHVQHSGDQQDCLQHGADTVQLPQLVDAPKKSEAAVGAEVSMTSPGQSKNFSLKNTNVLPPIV
T35 sequence (P42680 whole entry): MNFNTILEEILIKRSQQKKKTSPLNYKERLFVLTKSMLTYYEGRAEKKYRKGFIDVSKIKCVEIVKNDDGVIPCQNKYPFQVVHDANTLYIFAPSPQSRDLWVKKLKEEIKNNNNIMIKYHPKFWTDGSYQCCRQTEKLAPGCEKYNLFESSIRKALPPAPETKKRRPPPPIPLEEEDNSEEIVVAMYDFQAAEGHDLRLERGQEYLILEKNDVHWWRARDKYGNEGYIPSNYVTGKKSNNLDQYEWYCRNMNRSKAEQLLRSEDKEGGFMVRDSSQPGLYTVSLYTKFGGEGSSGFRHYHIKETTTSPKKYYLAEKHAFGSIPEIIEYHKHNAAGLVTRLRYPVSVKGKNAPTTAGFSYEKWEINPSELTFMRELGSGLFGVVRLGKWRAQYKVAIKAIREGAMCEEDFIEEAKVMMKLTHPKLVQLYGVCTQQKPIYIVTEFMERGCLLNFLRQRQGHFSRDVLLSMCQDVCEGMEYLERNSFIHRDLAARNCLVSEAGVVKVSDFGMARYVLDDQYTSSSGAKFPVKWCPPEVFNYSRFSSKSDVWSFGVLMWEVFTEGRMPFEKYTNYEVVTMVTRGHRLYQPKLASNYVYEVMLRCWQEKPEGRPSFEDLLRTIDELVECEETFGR
T25 sequence (O15264 whole entry): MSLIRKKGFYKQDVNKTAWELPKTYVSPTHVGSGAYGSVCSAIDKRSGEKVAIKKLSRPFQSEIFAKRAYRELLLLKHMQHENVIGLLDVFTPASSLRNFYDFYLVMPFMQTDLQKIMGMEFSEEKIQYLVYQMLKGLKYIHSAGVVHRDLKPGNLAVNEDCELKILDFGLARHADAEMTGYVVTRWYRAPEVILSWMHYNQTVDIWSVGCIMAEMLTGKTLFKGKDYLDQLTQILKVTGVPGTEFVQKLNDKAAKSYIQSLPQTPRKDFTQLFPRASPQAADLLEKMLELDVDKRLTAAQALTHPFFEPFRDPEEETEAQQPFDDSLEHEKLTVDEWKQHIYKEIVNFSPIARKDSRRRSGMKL

CC1(C)CC(=O)c2c(SC3CCCC3)sc(-c3cc[nH]n3)c2C1 [Example 7, 3-(Cyclopentylsulfanyl)-6,6-dimethyl-1-(1H-pyrazol-3-yl)-6,7-dihydro-2-benzothiophen-4(5H)-one]
inhibition at 10 µM (ABL H396P): 3.1% | inhibition at 10 µM (ABL T315I): 2.6% | inhibition at 10 µM (ABL1 E255K): 7.5% | inhibition at 10 µM (ABL1 Y253F): 10.6% | inhibition at 10 µM (AKT1): 0.1% | inhibition at 10 µM (AXL): 12.3% | inhibition at 10 µM (BMX): -30.7% | inhibition at 10 µM (CHK1): 8% | inhibition at 10 µM (CHK2): 3.7% | inhibition at 10 µM (DYRK4): 0.4% | inhibition at 10 µM (EPHA1): -0.2% | inhibition at 10 µM (EPHB4): 0.1% | inhibition at 10 µM (FMS): -6.5% | inhibition at 10 µM (GSK3B): 0.5% | inhibition at 10 µM (HIPK1): -1% | inhibition at 10 µM (HIPK2): 5% | inhibition at 10 µM (IKKE): 1.3% | inhibition at 10 µM (ITK): -2.9% | inhibition at 10 µM (LYN): 4% | inhibition at 10 µM (MAPKAPK2): 2% | inhibition at 10 µM (MARK2): 9.2% | inhibition at 10 µM (MELK): 7.3% | inhibition at 10 µM (MET M1250T): -0.3% | inhibition at 10 µM (MNK1): -5.6% | inhibition at 10 µM (P38D): -0.3% | inhibition at 10 µM (PAK4): -8.9% | inhibition at 10 µM (PHKG1): 4.6% | inhibition at 10 µM (PHKG2): -2% | inhibition at 10 µM (PKACA): -5.4% | inhibition at 10 µM (PRKCB1): -3.9% | inhibition at 10 µM (PRKX): -6.6% | inhibition at 10 µM (PYK2): -0.6% | inhibition at 10 µM (RAF-1): -0.2% | inhibition at 10 µM (SRM): 3% | inhibition at 10 µM (TEC): -3.2% | inhibition at 10 µM (TSSK2): -2.3% | inhibition at 10 µM (TXK): 8.4% | inhibition at 10 µM (ZIPK): 1%

CSc1sc(-c2cc[nH]n2)c2c1C(=O)CCC2 [Example 1, 3-(Methylsulfanyl)-1-(1H-pyrazol-3-yl)-6,7-dihydro-2-benzothiophen-4(5H)-one]
inhibition at 10 µM (ABL H396P): 10.3% | inhibition at 10 µM (ABL T315I): 9.9% | inhibition at 10 µM (ABL1 E255K): 2.8% | inhibition at 10 µM (ABL1 Y253F): 2.5% | inhibition at 10 µM (AKT1): -3.2% | inhibition at 10 µM (AXL): 13.5% | inhibition at 10 µM (BMX): -10.9% | inhibition at 10 µM (CHK1): 0% | inhibition at 10 µM (CHK2): 48.7% | inhibition at 10 µM (DYRK4): -1.1% | inhibition at 10 µM (EPHA1): 2.8% | inhibition at 10 µM (EPHB4): 0.6% | inhibition at 10 µM (FMS): -36.1% | inhibition at 10 µM (GSK3B): 5.4% | inhibition at 10 µM (HIPK1): 15.9% | inhibition at 10 µM (HIPK2): 25.2% | inhibition at 10 µM (IKKE): -1.5% | inhibition at 10 µM (ITK): 4.8% | inhibition at 10 µM (LYN): 10.2% | inhibition at 10 µM (MAPKAPK2): 4.1% | inhibition at 10 µM (MARK2): 0.3% | inhibition at 10 µM (MELK): 11% | inhibition at 10 µM (MET M1250T): 5.1% | inhibition at 10 µM (MNK1): 1.7% | inhibition at 10 µM (P38D): 4.2% | inhibition at 10 µM (PAK4): 6.1% | inhibition at 10 µM (PHKG1): 6.3% | inhibition at 10 µM (PHKG2): -5.5% | inhibition at 10 µM (PKACA): -6% | inhibition at 10 µM (PRKCB1): -5.1% | inhibition at 10 µM (PRKX): -0.6% | inhibition at 10 µM (PYK2): 4.2% | inhibition at 10 µM (RAF-1): 3.1% | inhibition at 10 µM (SRM): 3.5% | inhibition at 10 µM (TEC): 0.6% | inhibition at 10 µM (TSSK2): 20.1% | inhibition at 10 µM (TXK): 22.7% | inhibition at 10 µM (ZIPK): 8.1%
